The values that follow come from patent publication US8911953B2, “TDF-related compounds and analogs thereof, analogs and bioactive fragments” (Thrasos Innovation, Inc., priority 2005, dated 2014).

Entries after “also recorded” stand apart in the source; their conditions may differ. Positions of bridges follow the written chain, without caps; N, C: chain ends. No end group written: not given here.

Experiment [1] deals with LNCaP human prostate cancer cells. Nature of the experiment: Smad phosphorylation in LNCaP prostate cancer cells (Western blot). It counts as cell-based. The conditions noted are these: for Smad 1, 5, 8 phosphorylation on co-administration: TDFRP compound co-administered with BMP-6, LNCaP cells; for Smad phosphorylation and activation: single agent, cultured LNCaP cells. How it is done: The detection of Smad phosphorylation by Western analysis, for example in LNCaP (prostate cancer cells) or EC (vascular endothelial cells) in culture medium can be examined after exposure to varying concentrations of TDFRP or control compounds. BMP-7 serves as a positive control. Cells are lysed in RIPA lysis buffer (50 mM Tris-HCl at pH 8.0, 150 mM NaCl, 1% NP-40, 0.5% sodium deoxycholate, 0.1% SDS) containing 1 mM PMSF, 1 mM sodium orthovanadate, and 10 ug/mL proteinase inhibitor cocktail. Lysates are incubated on ice for 15 minutes, centrifuged, and transferred supernatant to a clean tube. 50 to 100 ug is used for analysis by SDS-PAGE. Resolved proteins are electro transferred onto PVDF membrane. The blot is blocked by incubating in 3% non-fat dry milk prepared in PBS at room temperature for 1 hour with constant slow agitation. The blot is incubated with 1-2 ug/mL of primary antibody (rabbit anti-phospho-Smad 1) prepared in PBS-milk, overnight with agitation at 4 degree C., washed twice with PBS, and incubated with secondary antibody (anti rabbit HRP conjugated IgG, 1:3000 dilution) at room temperature for 2 hours with agitation. After washing in PBS-0.05% Tween 20 for 5 minutes and rinsing, Smad phosphorylation is detected via an HRP reaction according to manufacturer's instructions (FIGS. 2, 3, 18, 2X).
For detection of Smad phosphorylation by Western analysis, LNCaP (prostate cancer cells) or EC (vascular endothelial cells) in culture medium are exposed to varying concentrations of TDFRP or control compounds. BMP-7 served as a positive control. Cells are lysed in RIPA lysis buffer (50 mM Tris-HCl at pH 8.0, 150 mM NaCl, 1% NP-40, 0.5% sodium deoxycholate, 0.1% SDS) containing 1 mM PMSF, 1 mM sodium orthovanadate, and 10 ug/mL proteinase inhibitor cocktail. Lysates are incubated on ice for 15 minutes, centrifuged, and transferred supernatant to a clean tube. 50 to 100 ug is used for analysis by
SDS-PAGE. Resolved proteins are electro transferred onto PVDF membrane. The blot is blocked by incubating in 3% non-fat dry milk prepared in PBS at room temperature for 1 hour with constant slow agitation. The blot is incubated with 1-2 ug/mL of primary antibody (rabbit anti-phospho-Smad 1) prepared in PBS-milk, overnight with agitation at 4 degree C., washed twice with PBS, and incubated with secondary antibody (anti rabbit HRP conjugated IgG, 1:3000 dilution) at room temperature for 2 hours with agitation. After washing in PBS-0.05% Tween 20 for 5 minutes and rinsing, Smad phosphorylation is detected via an HRP reaction according to manufacturer's instructions (FIGS. 3, 27).
BMP signaling molecules co-administered with TDFRP compounds show synergistic or enhanced downstream signaling as detected by Smad phosphorylation. Smad phosphorylation was assessed by Western analysis in LNCaP (prostate cancer cells) or EC (vascular endothelial cells) cells in culture medium exposed to varying concentrations of TDFRP or control compounds. BMP-7 served as a positive control. Cells are lysed in RIPA lysis buffer (50 mM Tris-HCl at pH 8.0, 150 mM NaCl, 1% NP-40, 0.5% sodium deoxycholate, 0.1% SDS) containing 1 mM PMSF, 1 mM sodium orthovanadate, and 10 ug/mL proteinase inhibitor cocktail. Lysates are incubated on ice for 15 minutes, centrifuged, and transferred supernatant to a clean tube. 50 to 100 ug is used for analysis by SDS-PAGE. Resolved proteins are electro transferred onto PVDF membrane. […]
On the technique in general: In western blotting, separated proteins are transferred to a membrane and probed.

The target in experiment [2] is ALK-6 (Homo sapiens, UniProt O00238). The settings on record: native protein; cited from earlier work.
ALK-6, sequence (O00238 14-502): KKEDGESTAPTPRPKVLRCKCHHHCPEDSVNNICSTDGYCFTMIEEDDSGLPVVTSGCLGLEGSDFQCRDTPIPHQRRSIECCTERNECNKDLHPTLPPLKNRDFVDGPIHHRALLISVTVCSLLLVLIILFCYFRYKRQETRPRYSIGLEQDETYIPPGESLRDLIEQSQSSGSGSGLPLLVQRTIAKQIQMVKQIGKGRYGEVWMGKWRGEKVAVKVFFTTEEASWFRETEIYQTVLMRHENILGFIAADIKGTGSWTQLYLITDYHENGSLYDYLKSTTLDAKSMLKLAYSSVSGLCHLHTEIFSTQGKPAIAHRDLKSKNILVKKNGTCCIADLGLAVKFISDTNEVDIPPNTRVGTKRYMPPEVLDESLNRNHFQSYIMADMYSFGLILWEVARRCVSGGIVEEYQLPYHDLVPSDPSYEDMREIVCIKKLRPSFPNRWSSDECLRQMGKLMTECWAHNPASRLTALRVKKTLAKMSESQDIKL

Regarding “CYFDDSSNVLCKKYRS (disulfide 1-11 (inferred); not fully specified) [SEQ ID NO:45]”, in experiment [1], the “Smad 1, 5, 8 phosphorylation on co-administration” value is “enhanced”; the “Smad phosphorylation and activation” value is “induced”. Besides, in experiment [1] (listed as SEQ ID NO: 45), the “Smad 1, 5, 8 phosphorylation on co-administration” value is recorded as “enhanced or synergistic activity”; the “Smad phosphorylation and activation” value is “phosphorylation and activation of Smad1 and Smad5; also recorded: Smad 1, 5, 8 phosphorylation and activation”.

B1: BMP-7: recombinant human mature BMP-7 (BMP-7 or TDF-1), positive control therapy (protein)
chain: STGSKQRSQNRSKTPKNQEALRMANVAENSSSDQRQACKKHELYVSFRDLGWQDWIIAPEGYAAYYCEGECAFPLNSYMNATNHAIVQTLVHFINPETVPKPCCAPTQLNAISVLYFDDSSNVILKKYRNMVVRACGCH
For B1, in experiment [2], the “affinity of binding to ALK-6” value was “higher affinity”.
